# From publication PMC11899342, “Novel Triazeneindole Antibiotics: Synthesis and Hit-to-Lead Optimization” (International Journal of Molecular Sciences, 2025)
# Where two headings read alike, the source gives them in different places.
# Legend:
# MRSA clinical isolates = assay: MIC by broth microdilution against multidrug-resistant MRSA clinical isolates; format: cell-based, Staphylococcus aureus; conditions: for MIC: Staphylococcus aureus
# Method in brief: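 Multidrug-resistant clinical MRSA isolates, 1 × 10^6 CFU/mL suspension in Mueller Hinton broth, broth microdilution with compounds at final 1, 0.5, 0.25 and 0.125 mg/L. Incubated 18 h at 37 °C; MIC taken as lowest concentration with no visible growth, triplicate.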
# [1] = system: human embryonic fibroblasts (HEFs); assay: MTT cytotoxicity on human embryonic fibroblasts; format: cell-based; conditions: Homo sapiens, Fibroblast, 24 h, ND = non-toxic in tested concentrations (up to 50 mg/L)
# Procedure: (§1) The primary screening of 22 substances was performed on human embryonic fibroblasts (HEFs). […] The HepG2 cell line was obtained from the American Type Culture Collection (ATCC cat. # HB-8065). The primary HEF cells (normal human embryonic fibroblasts) were derived from human embryonic stem cells. The cells were cultured in DMEM/F12 (1:1) medium containing 10% fetal bovine serum (Invitrogen, Carlsbad, CA, USA) at 37 °C and 5% CO2, according to standard mammalian tissue culture protocols and sterile technique. […] The incubation time with the substance was 24 h for all substances and cell lines. Cell detachment by trypsin, centrifugation, and counting in a hemocytometer were performed 16 h before the addition of the substance. For correct counting of the HepG2 cells, the cell suspension was passed through a syringe needle to get rid of cell aggregates. The cells were placed in the wells of a 96-well plate. The number of cells was selected according to the properties of the cell line and the final optical density in the experiment. Fibroblasts and hepatocytes were used in the amount of 10 thousand cells per well in 100 μL of DMEM/F12 medium supplemented with 10% fetal bovine serum. The substances were added to 100 µL of medium in the wells so that the final concentrations were 50, 25, 12.5, 6.25, 3.125, and 1.62 mg/L. The final well volume was 200 µL. The medium containing fetal bovine serum, without added substances, was used as a negative control. After 24 h, excessive amounts of medium were discarded. A total of 30 µL of MTT solution (5 mg/mL in PBS) was added to each well. After the precipitation of formazan crystals (3 h incubation), they were dissolved using 100 μL of dimethyl sulfoxide. The optical density (OD) was measured at 570 nm using a microplate reader (Eppendorf). For every condition, the cell viabilities were assessed in at least three independent experiments for every cell culture. Cell survival was calculated using the following formula:(OD of treated cells − OD blank)/(OD of control cells − OD blank) × 100%, where OD blank represents the OD values in wells without cells but with the addition of the MTT and DMSO solutions. The results were presented in the form of cytotoxicity curves, and the graphs were also plotted in a Microsoft Excel program; the calculation of the IC50 half-maximal inhibition concentration values was performed in a GraphPad Prism 6.0 (GraphPad Software Inc., San Diego, CA, USA) program, based on the equations of the cytotoxicity curves.
# [2] = Solubility in water by HPLC; format: physicochemical; conditions: water
# Method in brief: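 Compound (1.0 mg in 10 μL DMSO) mixed with 1.0 mL water, shaken 5 min and centrifuged; supernatant analysed by C18 HPLC. Water concentration derived from peak area relative to an acetonitrile standard at 1.0 mg/mL.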
# [3] = system: HepG2 human liver carcinoma cells; assay: MTT cytotoxicity (hepatotoxicity) on HepG2; format: cell-based; conditions: Homo sapiens, HepG2, 24 h
# Procedure: as §1
# MRSA = assay: Selectivity index (average IC50 on eukaryotic cells / average MIC on MRSA); format: cell-based, Staphylococcus aureus; conditions: average IC50 on eukaryotic cells divided by average MIC on MRSA
# Procedure: The selectivity index was calculated for each compound as the average IC50 on eukaryotic cells divided by the average MIC on MRSA (Table 2).
structure (smiles),measurement,setting,value
"CCOC(=O)c1[nH]c2cc(F)ccc2c1/N=N/N1CCCC1 [BX-SI043, Ethyl (E)-6-fluoro-3-(pyrrolidin-1-yldiazenyl)-1H-indole-2-carboxylate]",MIC Range Against 8 MRSA Strains,"MRSA clinical isolates; 8 multidrug-resistant MRSA clinical isolates, tested 0.125-1 mg/L",0.25 µg/mL
same,minimal inhibitory concentration range,MRSA clinical isolates; 41 multidrug-resistant MRSA strains,0.125 to 0.5 µg/mL
same,times lower MIC than either vancomycin or linezolid,MRSA clinical isolates; MRSA,4–8 times
same,MIC,"MRSA clinical isolates; MRSA, 8 MRSA strains, read-out: lowest MIC values against most tested strains",0.25 µg/mL
same,MIC,"MRSA clinical isolates; MRSA, Figure 6, MRSA strain 2, read-out: MIC against 8 MRSA strains",0.25 µg/mL
same,MIC,"MRSA clinical isolates; MRSA, Figure 6, MRSA strain 7, read-out: MIC against 8 MRSA strains",0.25 µg/mL
same,MIC,"MRSA clinical isolates; MRSA, Figure 6, MRSA strain 8, read-out: MIC against 8 MRSA strains",0.25 µg/mL
same,MIC,"MRSA clinical isolates; MRSA, Figure 6, MRSA strain 9, read-out: MIC against 8 MRSA strains",0.25 µg/mL
same,MIC,"MRSA clinical isolates; MRSA, Figure 6, MRSA strain 13, read-out: MIC against 8 MRSA strains",0.25 µg/mL
same,MIC,"MRSA clinical isolates; MRSA, Figure 6, MRSA strain 21, read-out: MIC against 8 MRSA strains",0.25 µg/mL
same,MIC,"MRSA clinical isolates; MRSA, Figure 6, MRSA strain 48, read-out: MIC against 8 MRSA strains",0.25 µg/mL
same,MIC,"MRSA clinical isolates; MRSA, Figure 6, MRSA strain 50, read-out: MIC against 8 MRSA strains",0.25 µg/mL
same,MIC,"MRSA clinical isolates; MRSA, Table S4, MRSA strain 1, read-out: MIC",0.25 µg/mL
same,MIC,"MRSA clinical isolates; MRSA, Table S4, MRSA strain 2, read-out: MIC",0.5 µg/mL
same,MIC,"MRSA clinical isolates; MRSA, Table S4, MRSA strain 3, read-out: MIC",0.5 µg/mL
same,MIC,"MRSA clinical isolates; MRSA, Table S4, MRSA strain 4, read-out: MIC",0.5 µg/mL
same,MIC,"MRSA clinical isolates; MRSA, Table S4, MRSA strain 5, read-out: MIC",0.25 µg/mL
same,MIC,"MRSA clinical isolates; MRSA, Table S4, MRSA strain 6, read-out: MIC",0.5 µg/mL
same,MIC,"MRSA clinical isolates; MRSA, Table S4, MRSA strain 7, read-out: MIC",0.5 µg/mL
same,MIC,"MRSA clinical isolates; MRSA, Table S4, MRSA strain 8, read-out: MIC",0.25 µg/mL
same,MIC,"MRSA clinical isolates; MRSA, Table S4, MRSA strain 9, read-out: MIC",0.5 µg/mL
same,MIC,"MRSA clinical isolates; MRSA, Table S4, MRSA strain 10, read-out: MIC",0.25 µg/mL
same,MIC,"MRSA clinical isolates; MRSA, Table S4, MRSA strain 12, read-out: MIC",0.25 µg/mL
same,MIC,"MRSA clinical isolates; MRSA, Table S4, MRSA strain 13, read-out: MIC",0.5 µg/mL
same,MIC,"MRSA clinical isolates; MRSA, Table S4, MRSA strain 14, read-out: MIC",0.25 µg/mL
same,MIC,"MRSA clinical isolates; MRSA, Table S4, MRSA strain 15, read-out: MIC",0.25 µg/mL
same,MIC,"MRSA clinical isolates; MRSA, Table S4, MRSA strain 16, read-out: MIC",0.25 µg/mL
same,MIC,"MRSA clinical isolates; MRSA, Table S4, MRSA strain 17, read-out: MIC",0.5 µg/mL
same,MIC,"MRSA clinical isolates; MRSA, Table S4, MRSA strain 18, read-out: MIC",0.5 µg/mL
same,MIC,"MRSA clinical isolates; MRSA, Table S4, MRSA strain 21, read-out: MIC",0.5 µg/mL
same,MIC,"MRSA clinical isolates; MRSA, Table S4, MRSA strain 23, read-out: MIC",0.5 µg/mL
same,MIC,"MRSA clinical isolates; MRSA, Table S4, MRSA strain 24, read-out: MIC",0.5 µg/mL
same,MIC,"MRSA clinical isolates; MRSA, Table S4, MRSA strain 25, read-out: MIC",0.5 µg/mL
same,MIC,"MRSA clinical isolates; MRSA, Table S4, MRSA strain 26, read-out: MIC",0.25 µg/mL
same,MIC,"MRSA clinical isolates; MRSA, Table S4, MRSA strain 27, read-out: MIC",0.5 µg/mL
same,MIC,"MRSA clinical isolates; MRSA, Table S4, MRSA strain 28, read-out: MIC",0.5 µg/mL
same,MIC,"MRSA clinical isolates; MRSA, Table S4, MRSA strain 29, read-out: MIC",0.5 µg/mL
same,MIC,"MRSA clinical isolates; MRSA, Table S4, MRSA strain 30, read-out: MIC",0.5 µg/mL
same,MIC,"MRSA clinical isolates; MRSA, Table S4, MRSA strain 31, read-out: MIC",0.5 µg/mL
same,MIC,"MRSA clinical isolates; MRSA, Table S4, MRSA strain 34, read-out: MIC",0.125 µg/mL
same,MIC,"MRSA clinical isolates; MRSA, Table S4, MRSA strain 35, read-out: MIC",0.5 µg/mL
same,MIC,"MRSA clinical isolates; MRSA, Table S4, MRSA strain 36, read-out: MIC",0.25 µg/mL
same,MIC,"MRSA clinical isolates; MRSA, Table S4, MRSA strain 40, read-out: MIC",0.5 µg/mL
same,MIC,"MRSA clinical isolates; MRSA, Table S4, MRSA strain 41, read-out: MIC",0.25 µg/mL
same,MIC,"MRSA clinical isolates; MRSA, Table S4, MRSA strain 42, read-out: MIC",0.5 µg/mL
same,MIC,"MRSA clinical isolates; MRSA, Table S4, MRSA strain 43, read-out: MIC",0.5 µg/mL
same,MIC,"MRSA clinical isolates; MRSA, Table S4, MRSA strain 44, read-out: MIC",0.5 µg/mL
same,MIC,"MRSA clinical isolates; MRSA, Table S4, MRSA strain 45, read-out: MIC",0.5 µg/mL
same,MIC,"MRSA clinical isolates; MRSA, Table S4, MRSA strain 46, read-out: MIC",0.5 µg/mL
same,MIC,"MRSA clinical isolates; MRSA, Table S4, MRSA strain 48, read-out: MIC",0.5 µg/mL
same,MIC,"MRSA clinical isolates; MRSA, Table S4, MRSA strain 49, read-out: MIC",0.25 µg/mL
same,MIC,"MRSA clinical isolates; MRSA, Table S4, MRSA strain 50, read-out: MIC",0.5 µg/mL
same,MIC,"MRSA clinical isolates; MRSA, Table S4, MRSA strain 51, read-out: MIC",0.5 µg/mL
same,IC50,[1],19 µg/mL
same,solubility at 5 min,"[2]; read-out: Solubility in water, mass concentration",0.88 µg/mL
same,solubility at 5 min,"[2]; read-out: Solubility in water, molar concentration",3 µM
same,IC50,[3],19 µg/mL
same,Selectivity Index,MRSA,76
